Results on 22 molecules are retold here after patent US10882835B2 (Imago Biosciences, Inc., priority 2013, dated 2021).

The structures appear in SMILES notation. A value given as a limit tells only on which side of the number the result lay.

The IC50 is the concentration at which inhibition is half-maximal. The low end stands for inhibition by little substance, the high end for a need for much substance.

One data set has as its target KDM1A (LSD1) (Homo sapiens (Human), UniProt O60341). Briefly: 10-dose IC50 fluorescence coupling enzyme assay, LSD1 demethylase activity on histone H3(1-21)K4me2 peptide (HRP/Amplex Red). The class given is biochemical. As to conditions: 10 μM histone H3(1-21)K4me2 peptide substrate.
Data set [1] is described as follows: Metabolic stability in murine liver microsomes. The format is in vitro ADME. The following applies: mouse liver microsomes, 2 μM compound, NADPH. The method, then: The metabolic stability of compounds disclosed herein in pooled human liver microsomes (HLM) and pooled male mouse liver microsomes (MMLM) was determined according to the following protocol, in which the concentrations of compounds in reaction systems were evaluated by LC/MS/MS for estimating the stability in liver microsomes.
Pooled human liver microsomes (HMMCPL; PL050B) and pooled male mouse liver microsomes (MSMCPL; MS033) were purchased from CellzDirect (Invitrogen). Microsomes were stored at −80 C prior to use.
A master solution was prepared containing microsome (stock concentration 5 mg/mL, volume 50 μL, final concentration 0.5 mg/mL), MgCl2 solution (stock concentration 50 mM, volume 50 μL, final concentration 5 mM), phosphate buffer (stock concentration 200 mM, volume 250 μL, final concentration 100 mM), and water (volume […]. Five μL of 200 μM test compounds or control solution (control compound: verapamil) was then added. The final concentration of test compounds or verapamil in the reaction system was 2 μM. The mixture was pre-warmed at 37 C for 5 min.
The reaction was started with the addition of 50 μL of 10 mM NADPH solution at the final concentration of 1 mM and carried out at 37 C. 50 μL of ultra-pure H2O was used instead of NADPH solution in the negative control.
Aliquots of 50 μL were taken from the reaction solution at 0 and 30 min. The reaction was stopped by the addition of 3 volumes of cold methanol with IS (200 nM imipramine, 200 nM labetalol and 2 μM ketoprofen) at the designated time points. Samples were centrifuged at 16,000 g for 10 minutes to precipitate protein. Aliquot of 100 μL of the supernatant was diluted by 100 μL ultra-pure H2O, and the mixture was used for LC/MS/MS analysis. All experiments were performed in duplicate.
Samples were analyzed using liquid chromatography-mass spectrometry. The LC system comprised a Shimadzu liquid chromatograph separation system equipped with degasser DGU-20A3, solvent delivery unit LC-20AD, system controller CBM-20A, column oven CTO-10ASVP and CTC Analytics HTC PAL System. Chromatographic conditions included a Phenomenex column, 5.0μ C18 (2.0×50 mm); a mobile phase of 0.1% formic acid in acetonitrile and 0.1% formic acid in water; an elution rate of 500 μL/min; column temperature 25 C; injection volume 10 μL. Mass spectrometric analysis was performed using an API 4000 instrument from AB Inc. (Canada) with an ESI interface. The data acquisition and control system were created using Analyst 1.5.1 software from ABI Inc. A turbo spray ion source and electrospray ionization were employed in a multiple reaction monitoring (MRM) scan. Additional parameters included: collision gas, 6 L/min; curtain gas, 30 L/min; nebulize gas, 50 L/min; auxiliary gas, 50 L/min; temperature, 500 C; ionspray voltage, +5500 v (positive MRM). Quadripoles Q1 and Q3 were set to 456.2 and 200.2, respectively; declustering potential (DP), entrance potential (EP), and collision cell entrance potential (CE) were set to 120, 10, and 55 v, respectively; collision cell exit potential (CXP) was 12 v.
All calculations were carried out using Microsoft Excel. Peak areas were determined from extracted ion chromatograms. The control compounds were included in the assay. Any value of the compounds that was not within the specified limits was rejected and the experiment was repeated. The reaction system without the cofactors was used to exclude the misleading factor that resulted from instability of chemical itself.

`O=C(N[C@@H](CCCCN[C@@H]1C[C@H]1c1ccccc1)C(=O)N1CCCC1)c1ccccc1` [Example 1, N—((S)-1-oxo-6-(((1R,2S)-2-phenylcyclopropyl)amino)-1-(pyrrolidin-1-yl)hexan-2-yl)benzamide]: the IC50 at KDM1A (LSD1) is below 1000 nM.
`O=C(N[C@@H](CCCCN[C@@H]1C[C@H]1c1ccccc1)C(=O)N1CCCCC1)c1ccccc1` [Example 2, N—((S)-1-oxo-6-(((1R,2S)-2-phenylcyclopropyl)amino)-1-(piperidin-1-yl)hexan-2-yl)benzamide]: the IC50 on KDM1A (LSD1) is below 1000 nM. For the same molecule, the “% at 30 min, MLM” value in data set [1] is recorded as “− (− is <20%)”.
For `CN1CCN(C(=O)[C@H](CCCCN[C@@H]2C[C@H]2c2ccc(F)cc2)NC(=O)c2ccc(F)cc2)CC1` [Example 3, 4-fluoro-N—((S)-6-(((1R,2S)-2-(4-fluorophenyl)cyclopropyl)amino)-1-(4-methylpiperazin-1-yl)-1-oxohexan-2-yl)benzamide], the concentration for half-maximal inhibition (IC50) against KDM1A (LSD1) was below 1000 nM. The “% at 30 min, MLM” value in data set [1] is listed as “+ (+ is ≥20%)”.
On the same counts, the results for `CN1CCN(C(=O)[C@H](CCCCN[C@@H]2C[C@H]2c2ccccc2)NC(=O)c2ccccc2)CC1` [Example 4, N—((S)-1-(4-methylpiperazin-1-yl)-1-oxo-6-(((1R,2S)-2-phenylcyclopropyl)amino)hexan-2-yl)benzamide] are below 1000 nM and “+ (+ is ≥20%)”.
`CCN(CC)C(=O)[C@H](CCCCN[C@@H]1C[C@H]1c1ccccc1)NC(=O)c1ccccc1` [Example 5] showed an IC50 on KDM1A (LSD1) below 1000 nM.
With `O=C(N[C@@H](CCCCN[C@@H]1C[C@H]1c1ccccc1)C(=O)N1CCOCC1)c1ccccc1` [Example 6, N—((S)-1-morpholino-1-oxo-6-(((1R,2S)-2-phenylcyclopropyl)amino)hexan-2-yl)benzamide], the concentration for half-maximal inhibition (IC50) against KDM1A (LSD1) was below 1000 nM. Moreover, the “% at 30 min, MLM” value in data set [1] is “+ (+ is ≥20%)”.
On the same counts, the results for `O=C(N[C@@H](CCCCN[C@@H]1C[C@H]1c1ccc(F)cc1)C(=O)N1CCCCC1)c1ccccn1` [Example 7, N-[(2S)-6-[[(1R,2S)-2-(4-fluorophenyl)cyclopropyl]amino]-1-oxo-1-(piperidin-1-yl)hexan-2-yl]pyridine-2-carboxamide] are below 1000 nM and “− (− is <20%)”.
As to `C[C@@]1(NCCCC[C@H](NC(=O)c2ccccc2)C(=O)N2CCN(S(C)(=O)=O)CC2)C[C@H]1c1ccc(F)cc1` [Example 8, N—((S)-6-(((1R,2S)-2-(4-fluorophenyl)-1-methylcyclopropyl)amino)-1-(4-(methylsulfonyl)piperazin-1-yl)-1-oxohexan-2-yl)benzamide], the IC50 at KDM1A (LSD1) is above 1000 nM. Moreover, the “% at 30 min, MLM” value in data set [1] is listed as “+ (+ is ≥20%)”; in data set [1] (numeric values of Table 2) it was 65%.
`O=C(N[C@@H](CCCCN[C@@H]1C[C@H]1c1ccc(F)cc1)C(=O)N1CCCCC1)c1ccccc1` [Example 10, N—((S)-6-(((1R,2S)-2-(4-fluorophenyl)cyclopropyl)amino)-1-oxo-1-(piperidin-1-yl)hexan-2-yl)benzamide] returned a half-inhibitory concentration (IC50) against KDM1A (LSD1) below 1000 nM. In addition, the “% at 30 min, MLM” value in data set [1] was “− (− is <20%)”.
On the same counts, the results for `O=C(N[C@@H](CCCCN[C@@H]1C[C@H]1c1ccc(F)cc1)C(=O)N1CCOCC1)c1ccccc1` [Example 11, N—((S)-6-(((1R,2S)-2-(4-fluorophenyl)cyclopropyl)amino)-1-morpholino-1-oxohexan-2-yl)benzamide] are below 1000 nM and “+ (+ is ≥20%)”.
For the molecule `CN1CCN(C(=O)[C@H](CCCCN[C@@H]2C[C@H]2c2ccc(F)cc2)NC(=O)c2ccccc2)CC1` [Example 12, N—((S)-6-(((1R,2S)-2-(4-fluorophenyl)cyclopropyl)amino)-1-(4-methylpiperazin-1-yl)-1-oxohexan-2-yl)benzamide], the IC50 at KDM1A (LSD1) is below 1000 nM. Moreover, the “% at 30 min, MLM” value in data set [1] is on record as “+ (+ is ≥20%)”.
Turning to `O=C(N[C@@H](CCCCN[C@@H]1C[C@H]1c1ccc(F)cc1)C(=O)N1CCCCC1)c1ccc(F)cc1` [Example 13, 4-fluoro-N—((S)-6-(((1R,2S)-2-(4-fluorophenyl)cyclopropyl)amino)-1-oxo-1-(piperidin-1-yl)hexan-2-yl)], the half-maximal inhibitory concentration (IC50) against KDM1A (LSD1) is below 1000 nM. For the same molecule, in data set [1], the “% at 30 min, MLM” value is recorded as “− (− is <20%)”.
On the same counts, the results for `O=C(N[C@@H](CCCCN[C@@H]1C[C@H]1c1ccc(F)cc1)C(=O)N1CCCCC1)c1ccc(C(F)(F)F)cc1` [Example 14, N—((S)-6-(((1R,2S)-2-(4-fluorophenyl)cyclopropyl)amino)-1-oxo-1-(piperidin-1-yl)hexan-2-yl)-4-(trifluoromethyl)benzamide] are below 1000 nM and “− (− is <20%)”.
As to `O=C(N[C@@H](CCCCN[C@@H]1C[C@H]1c1ccc(F)cc1)C(=O)N1CCCCC1)c1ccc(-c2ccccc2)cc1` [Example 15, N—((S)-6-(((1R,2S)-2-(4-fluorophenyl)cyclopropyl)amino)-1-oxo-1-(piperidin-1-yl)hexan-2-yl)-[1,1′-biphenyl]-4-carboxamide], the “% at 30 min, MLM” value in data set [1] is reported as “− (− is <20%)”.
Regarding `O=C(N[C@@H](CCCCN[C@@H]1C[C@H]1c1ccc(F)cc1)C(=O)N1CCS(=O)(=O)CC1)c1ccccc1` [Example 16, N—((S)-1-(1,1-dioxidothiomorpholino)-6-(((1R,2S)-2-(4-fluorophenyl)cyclopropyl)amino)-1-oxohexan-2-yl)benzamide], the concentration for half-maximal inhibition (IC50) against KDM1A (LSD1) is below 1000 nM. For the same molecule, the “% at 30 min, MLM” value in data set [1] is recorded as “+ (+ is ≥20%)”.
As to `O=C(N[C@@H](COCCN[C@@H]1C[C@H]1c1ccc(F)cc1)C(=O)N1CCOCC1)c1ccc(F)cc1` [Example 20, 4-fluoro-N—((S)-3-(2-(((1R,2S)-2-(4-fluorophenyl)cyclopropyl)amino)ethoxy)-1-morpholino-1-oxopropan-2-yl)benzamide], the “% at 30 min, MLM” value in data set [1] is “− (− is <20%)”.
With `O=C(CN[C@@H]1C[C@H]1c1ccc(F)cc1)NC[C@H](NC(=O)c1ccc(F)cc1)C(=O)N1CCOCC1` [Example 21, 4-fluoro-N—((S)-3-(2-(((1R,2S)-2-(4-fluorophenyl)cyclopropyl)amino)acetamido)-1-morpholino-1-oxopropan-2-yl)benzamide], the “% at 30 min, MLM” value in data set [1] is given as “− (− is <20%)”.
`O=C(N[C@@H](CCCCN[C@@H]1C[C@H]1c1ccc(F)cc1)C(=O)N1CCCCC1)c1cnc[nH]1` [Example 23, N—((S)-6-((1R,2S)-2-(4-fluorophenyl)cyclopropylamino)-1-oxo-1-(piperidin-1-yl)hexan-2-yl)-1H-imidazole-5-carboxamide] displayed an IC50 against KDM1A (LSD1) below 1000 nM.
With `CN1CCN(C(=O)[C@H](CCCC(=O)N[C@@H]2C[C@H]2c2ccc(F)cc2)NC(=O)c2ccc(F)cc2)CC1` [Example 24, 4-fluoro-N—((S)-6-((1R,2S)-2-(4-fluorophenyl)cyclopropylamino)-1-(4-methylpiperazin-1-yl)-1,6-dioxohexan-2-yl)benzamide], in data set [1], the “% at 30 min, MLM” value is recorded as “+ (+ is ≥20%)”.
On to `COc1ccc([C@@H]2C[C@H]2NC(=O)COC[C@H](NC(=O)c2ccc(F)cc2)C(=O)N2CCOCC2)cc1` [Example 25, 4-fluoro-N—((S)-3-(2-((1R,2S)-2-(4-methoxyphenyl)cyclopropylamino)-2-oxoethoxy)-1-morpholino-1-oxopropan-2-yl)benzamide], for which, in data set [1], the “% at 30 min, MLM” value is “+ (+ is ≥20%)”.
For the molecule `COc1ccc([C@@H]2C[C@H]2NC(=O)CCC[C@H](NC(=O)c2ccc(F)cc2)C(=O)N2CCN(C)CC2)cc1` [Example 26, 4-fluoro-N—((S)-6-((1R,2S)-2-(4-methoxyphenyl)cyclopropylamino)-1-(4-methylpiperazin-1-yl)-1,6-dioxohexan-2-yl)benzamide], the “% at 30 min, MLM” value in data set [1] is recorded as “+ (+ is ≥20%)”.
For `CS(=O)(=O)N1CCN(C(=O)[C@H](CCCN[C@@H]2C[C@H]2c2ccc(F)cc2)NC(=O)c2ccc(F)cc2)CC1` [Example 29, 4-fluoro-N-[(2S)-5-[[(1R,2S)-2-(4-fluorophenyl)cyclopropyl]amino]-1-(4-methanesulfonylpiperazin-1-yl)-1-oxopentan-2-yl]benzamide], the “% at 30 min, MLM” value in data set [1] is recorded as “− (− is <20%)”.
